Test system: MDA-MB-231 multicell spheroids, viability
Experiment: Anticancer human tumor MDA-MB-231 cell line growth inhibition [PI3K];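 further: spheroids exposed to agents for seven days before reading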;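 on viability, T/C: percent of vehicle control luminescence with DMSO treated spheroids as 100%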
Details: for IC50: curve of first compound; for viability, T/C: stronger effect = lower value
Outline: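 Combination activity was assessed by viability in multicellular tumor spheroids carrying HUVEC and MSC components. Agents were tested with PI3K inhibitors from a Cmax-based top dose (or 10 microM) downward in half-log increments.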

[1] = second compound 0.00316 µM, first compound 0.0316 µM
[2] = second compound 0.00316 µM, first compound 0.1 µM
[3] = second compound 0.00316 µM, first compound 0.316 µM
[4] = second compound 0.00316 µM, first compound 1 µM
[5] = second compound 0.00316 µM, first compound 3.16 µM
[6] = second compound 0.00316 µM, first compound 10 µM
[7] = second compound 0.01 µM, first compound 0.0316 µM
[8] = second compound 0.01 µM, first compound 0.1 µM
[9] = second compound 0.01 µM, first compound 0.316 µM
[10] = second compound 0.01 µM, first compound 1 µM
[11] = second compound 0.01 µM, first compound 3.16 µM
[12] = second compound 0.01 µM, first compound 10 µM
[13] = second compound 0.0316 µM, first compound 0.0316 µM
[14] = second compound 0.0316 µM, first compound 0.1 µM
[15] = second compound 0.0316 µM, first compound 0.316 µM
[16] = second compound 0.0316 µM, first compound 1 µM
[17] = second compound 0.0316 µM, first compound 3.16 µM
[18] = second compound 0.0316 µM, first compound 10 µM
[19] = second compound 0.1 µM, first compound 0.0316 µM
[20] = second compound 0.1 µM, first compound 0.1 µM
[21] = second compound 0.1 µM, first compound 0.316 µM
[22] = second compound 0.1 µM, first compound 1 µM
[23] = second compound 0.1 µM, first compound 3.16 µM
[24] = second compound 0.1 µM, first compound 10 µM
[25] = second compound 0.316 µM, first compound 0.0316 µM
[26] = second compound 0.316 µM, first compound 0.1 µM
[27] = second compound 0.316 µM, first compound 0.316 µM
[28] = second compound 0.316 µM, first compound 1 µM
[29] = second compound 0.316 µM, first compound 3.16 µM
[30] = second compound 0.316 µM, first compound 10 µM
[31] = second compound 1 µM, first compound 0.0316 µM
[32] = second compound 1 µM, first compound 0.1 µM
[33] = second compound 1 µM, first compound 0.316 µM
[34] = second compound 1 µM, first compound 1 µM
[35] = second compound 1 µM, first compound 3.16 µM
[36] = second compound 1 µM, first compound 10 µM

In the case of `C#Cc1c(F)ccc2cc(O)cc(-c3ncc4c(N5CC6CCC(C5)N6)nc(OCC56CCCN5CC(F)C6)nc4c3F)c12` (stereo not drawn) + COc1c(OCCCN2CCOCC2)ccc2c3n(c(=NC(=O)c4cnc(N)nc4)nc12)CCN3, the IC50 (second compound 0.00316 µM) is reported as > 10000 nM, the IC50 (second compound 0.01 µM) is reported as 8600 nM and the IC50 (second compound 0.0316 µM) is reported as 2020 nM. The IC50 (second compound 0.1 µM) was < 31.6 nM, the IC50 (second compound 0.316 µM) was < 31.6 nM and the IC50 (second compound 1 µM) was < 31.6 nM. It also gave a viability, T/C [1] of 96%, a viability, T/C [2] of 101% and a viability, T/C [3] of 81.7%. It also gave a viability, T/C [4] of 88.4%, a viability, T/C [5] of 78.4% and a viability, T/C [6] of 52.7%. It also gave a viability, T/C [7] of 77.9%, a viability, T/C [8] of 77.8% and a viability, T/C [9] of 72.9%. It also gave a viability, T/C [10] of 74.2%, a viability, T/C [11] of 66.3% and a viability, T/C [12] of 47.5%. For the same molecule, the viability, T/C [13] was 60.6%, the viability, T/C [14] was 56.3% and the viability, T/C [15] was 60.5%. It also gave a viability, T/C [16] of 54.6%, a viability, T/C [17] of 45.7% and a viability, T/C [18] of 35%. The viability, T/C [19] was 47%, the viability, T/C [20] was 46.7% and the viability, T/C [21] was 46.9%. It also gave a viability, T/C [22] of 40.8%, a viability, T/C [23] of 33% and a viability, T/C [24] of 21.5%. For the same molecule, the viability, T/C [25] was 32.2%, the viability, T/C [26] was 31.5% and the viability, T/C [27] was 26.4%. For the same molecule, the viability, T/C [28] was 23.4%, the viability, T/C [29] was 18.1% and the viability, T/C [30] was 13.3%. For the same molecule, the viability, T/C [31] was 24.8%, the viability, T/C [32] was 23.1% and the viability, T/C [33] was 20.2%. The viability, T/C [34] was 16.8%, the viability, T/C [35] was 15.1% and the viability, T/C [36] was 10.4%.
In the case of `C=CC(=O)N1CCN(c2nc(=O)n(-c3c(C)ccnc3C(C)C)c3nc(-c4c(O)cccc4F)c(F)cc23)C(C)C1` (stereo not drawn) + COc1c(OCCCN2CCOCC2)ccc2c3n(c(=NC(=O)c4cnc(N)nc4)nc12)CCN3, the IC50 (second compound 0.00316 µM) is reported as > 10000 nM, the IC50 (second compound 0.01 µM) is reported as > 10000 nM and the IC50 (second compound 0.0316 µM) is reported as > 10000 nM. The IC50 (second compound 0.1 µM) was < 31.6 nM, the IC50 (second compound 0.316 µM) was < 31.6 nM and the IC50 (second compound 1 µM) was < 31.6 nM. The viability, T/C [1] was 94.2%, the viability, T/C [2] was 91.6% and the viability, T/C [3] was 104%. The viability, T/C [4] was 112%, the viability, T/C [5] was 122% and the viability, T/C [6] was 105%. It also gave a viability, T/C [7] of 83.5%, a viability, T/C [8] of 82.7% and a viability, T/C [9] of 85.4%. The viability, T/C [10] was 93.2%, the viability, T/C [11] was 103% and the viability, T/C [12] was 85.8%. For the same molecule, the viability, T/C [13] was 59.1%, the viability, T/C [14] was 58.9% and the viability, T/C [15] was 61.6%. It also gave a viability, T/C [16] of 62.5%, a viability, T/C [17] of 64.8% and a viability, T/C [18] of 48%. The viability, T/C [19] was 42.3%, the viability, T/C [20] was 45.3% and the viability, T/C [21] was 46.7%. It also gave a viability, T/C [22] of 46.1%, a viability, T/C [23] of 45.7% and a viability, T/C [24] of 33.6%. It also gave a viability, T/C [25] of 31.1%, a viability, T/C [26] of 31.4% and a viability, T/C [27] of 32.7%. For the same molecule, the viability, T/C [28] was 31.7%, the viability, T/C [29] was 27.6% and the viability, T/C [30] was 26.7%. It also gave a viability, T/C [31] of 24.8%, a viability, T/C [32] of 24.3% and a viability, T/C [33] of 23.2%. For the same molecule, the viability, T/C [34] was 26.3%, the viability, T/C [35] was 29.3% and the viability, T/C [36] was 25.7%.
In the case of `CC(Cn1ccc(-c2ccc(C#N)c(Cl)c2)n1)NC(=O)c1cc(C(C)O)[nH]n1` (stereo not drawn) + COc1c(OCCCN2CCOCC2)ccc2c3n(c(=NC(=O)c4cnc(N)nc4)nc12)CCN3, the IC50 (second compound 0.00316 µM) is reported as > 10000 nM, the IC50 (second compound 0.01 µM) is reported as > 10000 nM and the IC50 (second compound 0.0316 µM) is reported as > 10000 nM. For the same molecule, the IC50 (second compound 0.1 µM) was < 31.6 nM, the IC50 (second compound 0.316 µM) was < 31.6 nM and the IC50 (second compound 1 µM) was < 31.6 nM. The viability, T/C [1] was 90%, the viability, T/C [2] was 93.5% and the viability, T/C [3] was 106%. It also gave a viability, T/C [4] of 96.9%, a viability, T/C [5] of 91.9% and a viability, T/C [6] of 84.2%. The viability, T/C [7] was 76.8%, the viability, T/C [8] was 83.2% and the viability, T/C [9] was 80.1%. The viability, T/C [10] was 82.6%, the viability, T/C [11] was 77.6% and the viability, T/C [12] was 67.9%. The viability, T/C [13] was 60.8%, the viability, T/C [14] was 63.9% and the viability, T/C [15] was 60.8%. For the same molecule, the viability, T/C [16] was 62.5%, the viability, T/C [17] was 55% and the viability, T/C [18] was 46.2%. It also gave a viability, T/C [19] of 44.4%, a viability, T/C [20] of 47.1% and a viability, T/C [21] of 44.1%. It also gave a viability, T/C [22] of 47.3%, a viability, T/C [23] of 45.1% and a viability, T/C [24] of 37.6%. For the same molecule, the viability, T/C [25] was 31.6%, the viability, T/C [26] was 30.3% and the viability, T/C [27] was 31.4%. It also gave a viability, T/C [28] of 32%, a viability, T/C [29] of 29.6% and a viability, T/C [30] of 26.1%. The viability, T/C [31] was 24.4%, the viability, T/C [32] was 24.8% and the viability, T/C [33] was 24.6%. For the same molecule, the viability, T/C [34] was 25.3%, the viability, T/C [35] was 24.8% and the viability, T/C [36] was 22.4%.
`CC1(C)CCC(Nc2ncc(C(F)(F)F)c(-c3c[nH]c4c(P(C)(C)=O)c(C#N)ccc34)n2)CN1` (stereo not drawn) + COc1c(OCCCN2CCOCC2)ccc2c3n(c(=NC(=O)c4cnc(N)nc4)nc12)CCN3 was tested, and the IC50 (second compound 0.00316 µM) was 3280 nM, the IC50 (second compound 0.01 µM) was < 31.6 nM and the IC50 (second compound 0.0316 µM) was < 31.6 nM. For the same molecule, the IC50 (second compound 0.1 µM) was < 31.6 nM, the IC50 (second compound 0.316 µM) was < 31.6 nM and the IC50 (second compound 1 µM) was < 31.6 nM. For the same molecule, the viability, T/C [1] was 52.3%, the viability, T/C [2] was 45% and the viability, T/C [3] was 49.5%. It also gave a viability, T/C [4] of 55%, a viability, T/C [5] of 55.7% and a viability, T/C [6] of 4.47%. For the same molecule, the viability, T/C [7] was 48.4%, the viability, T/C [8] was 43.3% and the viability, T/C [9] was 45.8%. The viability, T/C [10] was 50.7%, the viability, T/C [11] was 45.2% and the viability, T/C [12] was 3.69%. The viability, T/C [13] was 42.3%, the viability, T/C [14] was 43.2% and the viability, T/C [15] was 38.2%. For the same molecule, the viability, T/C [16] was 41.5%, the viability, T/C [17] was 38.8% and the viability, T/C [18] was 3.49%. For the same molecule, the viability, T/C [19] was 35.4%, the viability, T/C [20] was 31.1% and the viability, T/C [21] was 31.5%. The viability, T/C [22] was 30.6%, the viability, T/C [23] was 30.7% and the viability, T/C [24] was 3.64%. For the same molecule, the viability, T/C [25] was 24.9%, the viability, T/C [26] was 23.2% and the viability, T/C [27] was 23.9%. For the same molecule, the viability, T/C [28] was 24.6%, the viability, T/C [29] was 24.8% and the viability, T/C [30] was 2.87%. For the same molecule, the viability, T/C [31] was 21.9%, the viability, T/C [32] was 20.9% and the viability, T/C [33] was 20.7%. It also gave a viability, T/C [34] of 22%, a viability, T/C [35] of 21.9% and a viability, T/C [36] of 2.6%.
